Experimental data as given in patent publication US20230114728A1 (Venatorx Pharmaceuticals, Inc., priority 2019, published 2023).
Values after ≈ are worked out from the molar mass of the structure shown.

How the values were obtained:
Type in all cases: cell-based
A. baumannii ATCC 19606 = assay: Broth microdilution MIC in CAMHB; conditions: Acinetobacter baumannii, ATCC19606; MHB; read-out: Minimum Inhibitory Concentration, A. baumannii ATCC 19606
Procedure, shortened: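 Per CLSI broth microdilution, colonies were grown 3-5 h at 37° C in cation-adjusted Mueller Hinton broth, then diluted to a starting inoculum of 2-8×10^5 CFU/mL against 2-fold serial compound dilutions. Plates were incubated 16-20 h at 37° C, and MIC was read visually as the lowest concentration with no growth.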

E. coli 901C = assay: Broth microdilution MIC in CAMHB; conditions: Escherichia coli; E. coli 901C (hyper-permeable); MHB; read-out: Minimum Inhibitory Concentration, E. coli 901C
Procedure, shortened: (§1)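 CLSI microdilution; CAMHB; inoculum 2-8×10^5 CFU/mL from 3-5 h 37° C culture; 2-fold compound series; 16-20 h, 37° C; MIC = lowest well without visible growth.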

E. coli AG100A = assay: Broth microdilution MIC in CAMHB; conditions: Escherichia coli, read-out: Minimum Inhibitory Concentration, E. coli AG100A
Procedure, shortened: as §1

E. coli AG100 = assay: Broth microdilution MIC in CAMHB; conditions: Escherichia coli; E. coli AG100 (wild-type parent); MHB; read-out: Minimum Inhibitory Concentration, E. coli AG100
Procedure, shortened: as §1

E. coli ATCC 25922 = assay: Broth microdilution MIC in CAMHB; conditions: Escherichia coli, ATCC25922; E. coli ATCC 25922; MHB; read-out: Minimum Inhibitory Concentration, E. coli 25922
Procedure, shortened: as §1

E. coli D22 = assay: Broth microdilution MIC in CAMHB; conditions: Escherichia coli; E. coli D22 (hyper-permeable); MHB; read-out: Minimum Inhibitory Concentration, E. coli D22
Procedure, shortened: as §1

[1] = tested on: K. pneumoniae 848844 producing SHV-11 and KPC-2; assay: Broth microdilution MIC in CAMHB; conditions: Klebsiella pneumoniae, read-out: Minimum Inhibitory Concentration, K. pneumoniae 848844
Procedure, shortened: as §1

[2] = tested on: K. pneumoniae SI-117 producing VIM-1; assay: Broth microdilution MIC in CAMHB; conditions: Klebsiella pneumoniae, read-out: Minimum Inhibitory Concentration, K. pneumoniae SI-117
Procedure, shortened: as §1

[3] = tested on: K. pneumoniae UMM producing SHV-5 and KPC-2; assay: Broth microdilution MIC in CAMHB; conditions: Klebsiella pneumoniae, read-out: Minimum Inhibitory Concentration, K. pneumoniae UMM
Procedure, shortened: as §1

[4] = tested on: P. aeruginosa (ΔmexAB-oprM); assay: Broth microdilution MIC in CAMHB; conditions: Pseudomonas aeruginosa, read-out: Minimum Inhibitory Concentration, P. aeruginosa ΔmexAB-OprM
Procedure, shortened: as §1

P. aeruginosa ATCC 27853 = assay: Broth microdilution MIC in CAMHB; conditions: Pseudomonas aeruginosa, ATCC27853; MHB; read-out: Minimum Inhibitory Concentration, P. aeruginosa ATCC 27853
Procedure, shortened: as §1

P. aeruginosa ATCC 35151 = assay: Broth microdilution MIC in CAMHB; conditions: Pseudomonas aeruginosa, ATCC35151; MHB; hyper-permeable strain; read-out: Minimum Inhibitory Concentration, P. aeruginosa ATCC 35151
Procedure, shortened: as §1

N. gonorrhoeae WHO Q = assay: Liquid broth MIC in Fastidious broth; conditions: Neisseria gonorrhoeae, read-out: Minimum Inhibitory Concentration, N. gonorrhoeae WHO Q
Procedure, shortened: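 Mosaic-PBP2 strains grown 24 h on chocolate agar (36 °C, 5% CO2), then direct-suspended in saline and OD600-adjusted. Twofold compound dilutions in Fastidious broth inoculated at 5×10^5 CFU/mL and incubated ~24 h at 36 °C, 5% CO2. MIC read visually as lowest concentration with <10% growth versus full-growth wells.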

SMILES	MIC (A. baumannii ATCC 19606)	MIC (E. coli 901C)	MIC (E. coli AG100A)	MIC (E. coli AG100)	MIC (E. coli ATCC 25922)	MIC (E. coli D22)	MIC [1]	MIC [2]	MIC [3]	MIC [4]	MIC (P. aeruginosa ATCC 27853)	MIC (P. aeruginosa ATCC 35151)	MIC (N. gonorrhoeae WHO Q)
O=C(Nc1ccccc1)NC(C(=O)N[C@H]1Cc2ccc(F)c(C(=O)O)c2OB1O)c1ncc(O)cc1F (stereo partly drawn) [Example 49, (3R)-7-fluoro-3-(2-(3-fluoro-5-hydroxypyridin-2-yl)-2-(3-phenylureido)acetamido)-2-hydroxy-3,4-dihydro-2H-benzo[e][1,2]oxaborinine-8-carboxylic acid]	> 128 µg/mL	32 to 64 µg/mL (≈ 62.5 to 125 µM)	> 128 µg/mL	> 128 µg/mL	> 128 µg/mL	8 to 16 µg/mL (≈ 15.6 to 31.2 µM)	> 128 µg/mL	> 128 µg/mL	> 128 µg/mL	32 to 64 µg/mL (≈ 62.5 to 125 µM)	> 128 µg/mL	2 to 4 µg/mL (≈ 3.9 to 7.81 µM)	–
CCN1CCN(C(=O)NC(C(=O)N[C@H]2Cc3cccc(C(=O)O)c3OB2O)c2ccc(N)c(F)c2)C(=O)C1=O (stereo partly drawn) [Example 50, (3R)-3-(2-(4-amino-3-fluorophenyl)-2-(4-ethyl-2,3-dioxopiperazine-1-carboxamido)acetamido)-2-hydroxy-3,4-dihydro-2H-benzo[e][1,2]oxaborinine-8-carboxylic acid]	> 128 µg/mL	< 0.25 µg/mL	2 to 4 µg/mL (≈ 3.69 to 7.39 µM)	32 to 64 µg/mL (≈ 59.1 to 118 µM)	32 to 64 µg/mL (≈ 59.1 to 118 µM)	2 to 4 µg/mL (≈ 3.69 to 7.39 µM)	> 128 µg/mL	> 128 µg/mL	32 to 64 µg/mL (≈ 59.1 to 118 µM)	2 to 4 µg/mL (≈ 3.69 to 7.39 µM)	> 128 µg/mL	0.5 to 1 µg/mL (≈ 0.924 to 1.85 µM)	–
N=C(N)NCCN1CCN(C(=O)NC(C(=O)N[C@H]2Cc3ccc(F)c(C(=O)O)c3OB2O)c2ncc(O)cc2F)C(=O)C1=O (stereo partly drawn) [Example 51, (3R)-7-fluoro-3-(2-(3-fluoro-5-hydroxypyridin-2-yl)-2-(4-(2-guanidinoethyl)-2,3-dioxopiperazine-1-carboxamido)acetamido)-2-hydroxy-3,4-dihydro-2H-benzo[e][1,2]oxaborinine-8-carboxylic acid]	> 128 µg/mL	2 to 4 µg/mL (≈ 3.23 to 6.47 µM)	8 to 16 µg/mL (≈ 12.9 to 25.9 µM)	32 to 64 µg/mL (≈ 51.8 to 104 µM)	32 to 64 µg/mL (≈ 51.8 to 104 µM)	8 to 16 µg/mL (≈ 12.9 to 25.9 µM)	32 to 64 µg/mL (≈ 51.8 to 104 µM)	32 to 64 µg/mL (≈ 51.8 to 104 µM)	8 to 16 µg/mL (≈ 12.9 to 25.9 µM)	8 to 16 µg/mL (≈ 12.9 to 25.9 µM)	> 128 µg/mL	0.5 to 1 µg/mL (≈ 0.809 to 1.62 µM)	–
N=C(N)NC(C(=O)N[C@H]1Cc2ccc(F)c(C(=O)O)c2OB1O)c1ncc(O)cc1F (stereo partly drawn) [Example 52, (3R)-7-fluoro-3-(2-(3-fluoro-5-hydroxypyridin-2-yl)-2-guanidinoacetamido)-2-hydroxy-3,4-dihydro-2H-benzo[e][1,2]oxaborinine-8-carboxylic acid]	> 128 µg/mL	> 128 µg/mL	> 128 µg/mL	> 128 µg/mL	> 128 µg/mL	> 128 µg/mL	> 128 µg/mL	> 128 µg/mL	> 128 µg/mL	> 128 µg/mL	> 128 µg/mL	> 128 µg/mL	–
O=C(NC(C(=O)N[C@H]1Cc2ccc(F)c(C(=O)O)c2OB1O)c1ncc(O)cc1F)c1ccnc(F)c1 (stereo partly drawn) [Example 53, (3R)-7-fluoro-3-(2-(3-fluoro-5-hydroxypyridin-2-yl)-2-(2-fluoroisonicotinamido)acetamido)-2-hydroxy-3,4-dihydro-2H-benzo[e][1,2]oxaborinine-8-carboxylic acid]	–	8 to 16 µg/mL (≈ 15.5 to 31 µM)	> 128 µg/mL	> 128 µg/mL	> 128 µg/mL	> 128 µg/mL	> 128 µg/mL	> 128 µg/mL	> 128 µg/mL	–	–	–	> 64 µg/mL
CCN1CCN(C(=O)NC(C(=O)N[C@H]2Cc3ccc(C=O)c(C(=O)O)c3OB2O)c2csc(N)n2)C(=O)C1=O (stereo partly drawn) [Example 57, (3R)-3-(2-(2-aminothiazol-4-yl)-2-(4-ethyl-2,3-dioxopiperazine-1-carboxamido)acetamido)-7-formyl-2-hydroxy-3,4-dihydro-2H-benzo[e][1,2]oxaborinine-8-carboxylic acid]	> 128 µg/mL	2 to 4 µg/mL (≈ 3.58 to 7.16 µM)	32 to 64 µg/mL (≈ 57.3 to 115 µM)	> 128 µg/mL	32 to 64 µg/mL (≈ 57.3 to 115 µM)	8 to 16 µg/mL (≈ 14.3 to 28.7 µM)	32 to 64 µg/mL (≈ 57.3 to 115 µM)	> 128 µg/mL	32 to 64 µg/mL (≈ 57.3 to 115 µM)	32 to 64 µg/mL (≈ 57.3 to 115 µM)	–	2 to 4 µg/mL (≈ 3.58 to 7.16 µM)	> 64 µg/mL
CCN1CCN(C(=O)NC(C(=O)N[C@H]2Cc3ccc(CO)c(C(=O)O)c3OB2O)c2csc(N)n2)C(O)C1=O (stereo partly drawn) [Example 58, (3R)-3-(2-(2-aminothiazol-4-yl)-2-(4-ethyl-2-hydroxy-3-oxopiperazine-1-carboxamido)acetamido)-2-hydroxy-7-(hydroxymethyl)-3,4-dihydro-2H-benzo[el][1,2]oxaborinine-8-carboxylic acid]	> 128 µg/mL	32 to 64 µg/mL (≈ 56.9 to 114 µM)	> 128 µg/mL	> 128 µg/mL	> 128 µg/mL	> 128 µg/mL	> 128 µg/mL	> 128 µg/mL	> 128 µg/mL	> 128 µg/mL	–	8 to 16 µg/mL (≈ 14.2 to 28.5 µM)	> 64 µg/mL
CCN1CCN(C(=O)NC(C(=O)N[C@H]2Cc3ccc(O[C@@H]4CN[C@H](C(=O)N(C)C)C4)c(C(=O)O)c3OB2O)c2ccccc2)C(=O)C1=O (stereo partly drawn) [Example 59, (3R)-7-(((3S,5S)-5-(dimethylcarbamoyl)pyrrolidin-3-yl)oxy)-3-(2-(4-ethyl-2,3-dioxopiperazine-1-carboxamido)-2-phenylacetamido)-2-hydroxy-3,4-dihydro-2H-benzo[e][1,2]oxaborinine-8-carboxylic acid]	> 128 µg/mL	2 to 4 µg/mL (≈ 3.01 to 6.02 µM)	32 to 64 µg/mL (≈ 48.2 to 96.3 µM)	> 128 µg/mL	> 128 µg/mL	32 to 64 µg/mL (≈ 48.2 to 96.3 µM)	> 128 µg/mL	> 128 µg/mL	> 128 µg/mL	8 to 16 µg/mL (≈ 12 to 24.1 µM)	–	0.5 to 1 µg/mL (≈ 0.752 to 1.5 µM)	> 64 µg/mL
O=C(O)c1ccc(C(NC(=O)c2c(F)cc(O)c(O)c2Cl)C(=O)N[C@H]2Cc3ccc(F)c(C(=O)O)c3OB2O)cc1F (stereo partly drawn) [Example 71, (3R)-3-(2-(4-carboxy-3-fluorophenyl)-2-(2-chloro-6-fluoro-3,4-dihydroxybenzamido)acetamido)-7-fluoro-2-hydroxy-3,4-dihydro-2H-benzo[e][1,2]oxaborinine-8-carboxylic acid]	–	–	–	–	–	–	–	–	–	–	–	–	> 64 µg/mL
CC(C)(C)[C@@H](NC(=O)N1CCN(CCNC(=O)c2c(F)cc(O)c(O)c2Cl)C(=O)C1=O)C(=O)N[C@H]1Cc2ccc(F)c(C(=O)O)c2OB1O [Example 80, (R)-3-((R)-2-(4-(2-(2-chloro-6-fluoro-3,4-dihydroxybenzamido)ethyl)-2,3-dioxopiperazine-1-carboxamido)-3,3-dimethylbutanamido)-7-fluoro-2-hydroxy-3,4-dihydro-2H-benzo[e][1,2]oxaborinine-8-carboxylic acid]	–	–	–	–	–	–	–	–	–	–	–	–	> 64 µg/mL
